These results are taken from ChEMBL document CHEMBL1137883, “Synthesis and vasorelaxant properties of hybrid molecules out of NO-donors and the beta-receptor blocking drug propranolol” (2004).

For assay [1], the species on record is Sus scrofa. Kind of assay: Concentration required for relaxation of PGF2-alpha (3 uM)-precontracted porcine pulmonary arteries; activity expressed as pD2.
For assay [2], the species on record is Sus scrofa. Kind of assay: Concentration required for relaxation of isolated porcine coronary arteries; activity expressed as pD2. The format is functional.

Regarding `CC(C)(CO[N+](=O)[O-])C(=O)O`, the pD2 in assay [1] came to 4.69.

As to `CC(C)N(CC(O)COc1cccc2ccccc12)C(=O)C(C)(C)CO[N+](=O)[O-]` (centres undefined), the pD2 in assay [1] was found to be 5.4.

The compound `CC(=O)N[C@@H](C(=O)O)C(C)(C)SN=O` yielded a pD2 in assay [2] of 6.69.

`CC(=O)N[C@@H](C(=O)N(CC(O)COc1cccc2ccccc12)C(C)C)C(C)(C)SN=O` (some centres undefined) displayed a pD2 in assay [1] of 6.94.
